Columns and labels:
TR-α = target: T1, TR-α (Homo sapiens, UniProt P10827); experiment: In vitro TR-α activity (in-house protocol); format: cell-based; conditions: for fold induction at 0.001 µM: Conc. 1 nM; for fold induction at 0.001 µM / fold induction at 0.01 µM / fold induction at 0.1 µM / fold induction at 1 µM: read-out: TR-α Fold Induction w.r.t T3(100 nm); for fold induction at 0.01 µM: Conc. 10 nM; for fold induction at 0.1 µM: Conc. 100 nM; for fold induction at 1 µM: Conc. 1000 nM
T1 sequence (P10827 1-410 isoform P10827-2): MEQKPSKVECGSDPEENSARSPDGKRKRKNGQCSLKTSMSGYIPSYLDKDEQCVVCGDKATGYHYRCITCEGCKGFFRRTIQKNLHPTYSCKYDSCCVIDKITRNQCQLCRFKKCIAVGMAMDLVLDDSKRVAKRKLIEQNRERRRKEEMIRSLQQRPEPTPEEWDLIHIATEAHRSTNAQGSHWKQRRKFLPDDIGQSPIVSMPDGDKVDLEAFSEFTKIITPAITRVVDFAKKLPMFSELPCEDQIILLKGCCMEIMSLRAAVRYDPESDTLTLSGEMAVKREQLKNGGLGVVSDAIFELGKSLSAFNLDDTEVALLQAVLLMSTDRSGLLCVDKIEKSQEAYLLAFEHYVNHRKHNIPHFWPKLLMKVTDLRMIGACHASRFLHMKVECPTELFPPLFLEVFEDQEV
Protocol: (§1) In vitro TR-α & TR-β activities were determined as per in-house protocols and the results of representative compounds are provided in tables 1 & 2 below as a proof of the efficacies of the novel class of compounds disclosed above.

TR-β = target: T2, TR-β (Homo sapiens, UniProt P10828); experiment: In vitro TR-β activity (in-house protocol); format: cell-based; conditions: for fold induction at 0.001 µM: Conc. 1 nM; for fold induction at 0.001 µM / fold induction at 0.01 µM / fold induction at 0.1 µM / fold induction at 1 µM: read-out: TR-β Fold Induction w.r.t T3(100 nm); for fold induction at 0.01 µM: Conc. 10 nM; for fold induction at 0.1 µM: Conc. 100 nM; for fold induction at 1 µM: Conc. 1000 nM
T2 sequence (P10828 1-461): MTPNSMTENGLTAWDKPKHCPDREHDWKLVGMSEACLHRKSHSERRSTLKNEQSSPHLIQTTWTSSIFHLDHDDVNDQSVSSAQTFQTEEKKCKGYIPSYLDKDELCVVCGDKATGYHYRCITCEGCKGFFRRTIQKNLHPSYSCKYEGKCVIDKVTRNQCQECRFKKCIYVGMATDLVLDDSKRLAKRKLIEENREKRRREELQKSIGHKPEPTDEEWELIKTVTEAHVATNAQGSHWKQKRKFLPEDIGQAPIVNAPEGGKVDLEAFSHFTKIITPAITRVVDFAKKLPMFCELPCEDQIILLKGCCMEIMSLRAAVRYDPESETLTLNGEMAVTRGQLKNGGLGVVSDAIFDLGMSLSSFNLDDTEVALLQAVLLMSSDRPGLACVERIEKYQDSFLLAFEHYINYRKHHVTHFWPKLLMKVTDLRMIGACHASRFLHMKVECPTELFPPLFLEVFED
Protocol: as §1

| fold induction at 0.001 µM (TR-α) | fold induction at 0.01 µM (TR-α) | fold induction at 0.1 µM (TR-α) | fold induction at 1 µM (TR-α) | fold induction at 0.001 µM (TR-β) | fold induction at 0.01 µM (TR-β) | fold induction at 0.1 µM (TR-β) | fold induction at 1 µM (TR-β) | EC50 (TR-α) | EC50 (TR-β) | SMILES |
| --- | --- | --- | --- | --- | --- | --- | --- | --- | --- | --- |
| 11.8 | 25.7 | 73.5 | 99 | 7.72 | 20.6 | 52.6 | 53.4 |  |  | CC(C)c1cc(Oc2c(Cl)cc(C=NOCC(=O)O)cc2Cl)ccc1O [Example 1, 2-(((3,5-dichloro-4-(4-hydroxy-3-isopropylphenoxy)benzylidene)amino)oxy)acetic acid] |
| 10.2 | 26.7 | 66.7 | 108 | 14 | 34.5 | 79.4 | 115 |  |  | CCC(C)c1cc(Oc2c(Cl)cc(C=NOCC(=O)O)cc2Cl)ccc1O (stereo not shown) [Example 2, 2-(((4-(3-(sec-butyl)-4-hydroxyphenoxy)-3,5-dichlorobenzylidene)amino)oxy)acetic acid] |
| 11.6 | 39.8 | 60.6 | 64.9 | 15.9 | 37.1 | 84 | 74.6 |  |  | CCC(C)c1cc(Oc2c(Br)cc(C=NOCC(=O)O)cc2Br)ccc1O (stereo not shown) [Example 6, 2-(((3,5-dibromo-4-(3-(sec-butyl)-4-hydroxyphenoxy)benzylidene)amino)oxy)acetic acid] |
| 12.4 | 29.5 | 75 | 76.6 | 16.3 | 45.4 | 85.2 | 89 |  |  | CC(ON=Cc1cc(Cl)c(Oc2ccc(O)c(C(C)C)c2)c(Cl)c1)C(=O)O (stereo not shown) [Example 8, 2-(((3,5-dichloro-4-(4-hydroxy-3-isopropylphenoxy)benzylidene)amino)oxy)propanoic acid] |

Further lines, the compound ahead of its results:

| SMILES | fold induction at 0.001 µM (TR-α) | fold induction at 0.01 µM (TR-α) | fold induction at 0.1 µM (TR-α) | fold induction at 1 µM (TR-α) | fold induction at 0.001 µM (TR-β) | fold induction at 0.01 µM (TR-β) | fold induction at 0.1 µM (TR-β) | fold induction at 1 µM (TR-β) | EC50 (TR-α) | EC50 (TR-β) |
| --- | --- | --- | --- | --- | --- | --- | --- | --- | --- | --- |
| O=C(O)CON=Cc1cc(Cl)c(Oc2ccc(O)c(-c3ccccc3)c2)c(Cl)c1 [Example 4, 2-(((3,5-dichloro-4-((6-hydroxy-[1,1′-biphenyl]-3-yl)oxy)benzylidene)amino)oxy)acetic acid] | 11 | 9.45 | 14 | 35.5 | 11.4 | 10.5 | 19.3 | 64.4 |  |  |
| O=C(O)CON=Cc1cc(Cl)c(Oc2ccc(O)c(Cc3ccccc3)c2)c(Cl)c1 [Example 5, 2-(((4-(3-benzyl-4-hydroxyphenoxy)-3,5-dichlorobenzylidene)amino)oxy)acetic acid] | 14.2 | 10.8 | 28.3 | 57 | 14.8 | 12 | 43.6 | 80.5 |  |  |
| O=C(O)CON=Cc1cc(Br)c(Oc2ccc(O)c(-c3ccccc3)c2)c(Br)c1 [Example 7, 2-(((3,5-dibromo-4-((6-hydroxy-[1,1′-biphenyl]-3-yl)oxy)benzylidene)amino)oxy)acetic acid] |  |  |  |  |  |  |  |  | 5.2 nM | 2.9 nM |
| O=C(O)CON=Cc1cc(Br)c(Oc2ccc(O)c(Cc3ccccc3)c2)c(Br)c1 [Example 9, 2-(((4-(3-benzyl-4-hydroxyphenoxy)-3,5-dibromobenzylidene)amino)oxy)acetic acid] | 10.7 | 10.7 | 23.8 | 64.8 | 11.5 | 17.6 | 60.2 | 98.8 |  |  |

From patent US20110301200A1, “THYROID RECEPTOR LIGANDS” (CADILA HEALTHCARE LIMITED, priority 2008, published 2011)
